# Experiments:
# HL60 cells [1] = assay: Cell viability (MTS) assay, HL60; settings: for cellular viability (MTS): HL60 cancer cells, at the given concentrations, 24, 48, and 72 hours; for toxicity: HL60 cell line, at a concentration of induction of cellular differentiation (FIGS. 9B, 10B)
# Description: (§1) Cell culture methods and treatments. HL60 and KG1a cell lines were cultivated in RPMI 1640 (Sigma-USA) culture medium supplemented with 1% penicillin/streptomycin (Gibco-USA), 10% and 20% fetal bovine serum (Gibco-USA) for HL60 and KG1a cell lines, respectively, and 0.5% Glutamax (Gibco-USA) for HL60 cell line. The cells were incubated at 37° C., 5% CO2, and 90% humidity. The stock solution (Mol/L) of HSL-C8, HSL-C12, and A-factor were prepared in 0.1% (v/v) and 0.2% (v/v) and 0.2% (v/v) DMSO, respectively, as a vehicle and stored at −80° C. Different dilutions of HSL-C8, HSL-C12, A-factor, and GBL were prepared from the stock solution, and […] (<4% of the total volume) of each were added to the wells containing 100 μL of cell suspension (10000 and 20000 HL60 and KG1a cells per well). 0.1% and 0.2% DMSO were used as the negative control for HSL-C8, HSL-C12, and A-factor for each test. Culture medium were used as the negative control for GBL.
# (§2) Cell viability assay. The cell viability was evaluated via (MTS) assay. HL60, KG1a, and PBMC cells were treated with HSL-C8, HSL-C12, A-factor, and GBL in 96-well plates for 24, 48, and 72 hours. Thereafter, […], of MTS/PMS solution were added to each well and the cells were incubated for 90 minutes. The optical density (OD) of samples was measured via spectrophotometer (EPOCH, BioTek, USA) at 490 nm and the viability of cells was calculated via the following formula:
# (§3) Cell viability (%)=[ODsample/ODcontrol]×100
# KG1a cells [2] = assay: Cell viability (MTS) assay, KG1a; settings: for cellular viability (MTS): KG1a cancer cells, at the given concentrations, 24, 48, and 72 hours; for toxicity: KG1a cell line, at a concentration of induction of cellular differentiation (FIGS. 9C, 10C)
# Description: as §1, §2, §3
# [3] = test system: peripheral blood mononuclear cells (PBMC); assay: Cell viability (MTS) assay, PBMC; assay type: cell-based; settings: normal cells (PBMC), at the given concentrations, 24, 48, and 72 hours
# Description: Cell viability assay. The cell viability was evaluated via (MTS) assay.
# as §3
# HL60 cells [4] = assay: Induction of differentiation: gene expression (qRT-PCR) and CD surface markers (flow cytometry), HL60; assay type: cell-based; settings: HL60 cell line; confirmed by expression of FLT3, PU1, CEBPA genes and CD3, CD20, CD14, CD33, CD16, CD56 surface markers
# Description: (§4) Cell culture methods and treatments.
# (§5) Flow cytometry. […] In addition, treated cells were incubated with antibody-dye conjugate against CD3, CD20, CD16, CD56, CD14, and CD33 for surface antigen analysis. Thereafter the samples were analyzed by flow cytometer (Attune NxT, Life Technologies-Thermo Fisher Scientific, USA). Treatment with 5 μL H2O2 and 1 μM ATRA were used as the positive controls for apoptosis and necrosis and surface antigen analyses, respectively. Data were analyzed with FlowJo software.
# (§6) RNA isolation and qRT-PCR. […] The concentration of extracted RNA was measured via spectrophotometer (EPOCH, BioTek, USA) at 260 nm. The quality of isolated RNA was further evaluated via agarose gel electrophoresis indicating two distinctive bands. Isolated RNA was then converted to cDNA via a commercial kit according to the manufacturer's instructions. The primers were designed with AlleleID software and Primer3 algorithm and then double-checked via the BLAST algorithm. cDNA samples were then prepared for analysis using a commercial kit and analyzed with qRT-PCR machine (Applied Biosystems-Thermo Fisher Scientific, USA).
# KG1a cells [5] = assay: Induction of differentiation: gene expression (qRT-PCR) and CD surface markers (flow cytometry), KG1a; assay type: cell-based; settings: KG1a cell line; confirmed by expression of FLT3, PU1, CEBPA genes and CD3, CD20, CD14, CD33, CD16, CD56 surface markers
# Description: as §4, §5, §6
# HL60 cells [6] = assay: Apoptosis/necrosis by flow cytometry, Annexin-V-FITC/PI staining, HL60; assay type: cell-based; settings: for apoptosis (early and late) and necrosis: HL60 cells
# Description: as §4, §5
# KG1a cells [7] = assay: Apoptosis/necrosis by flow cytometry, Annexin-V-FITC/PI staining, KG1a; assay type: cell-based
# Description: as §4, §5
# HL60 cells [8] = assay: Wright-Giemsa staining and light microscopy (morphology), HL60; assay type: cell-based
# Description: as §4
# (§7) Wright-Giemsa staining. HL60 and KG1a cells treated HSL-C8 and HSL-C12 were concentrated and then fixed on the slides with absolute ethanol prior to Wright-Giemsa staining. After staining for four minutes the 1 mL of tap water was added to the slides. After four minutes, they were washed with tap water, air-dried, and evaluated with a light microscopy.
# KG1a cells [9] = assay: Wright-Giemsa staining and light microscopy (morphology), KG1a; assay type: cell-based
# Description: as §4, §7
SMILES,cellular viability (MTS) (HL60 cells [1]),toxicity (HL60 cells [1]),cellular viability (MTS) (KG1a cells [2]),toxicity (KG1a cells [2]),cellular viability (MTS) [3],terminal cellular differentiation (HL60 cells [4]),terminal cellular differentiation (KG1a cells [5]),also measured
"CC(C)CCCCC(=O)C1C(=O)OCC1CO (stereo not drawn) [A-factor, 2-isocapryloyl-3R-hydroxymethyl-gamma-butyrolactone]",do not decrease the cellular viability of treated cancer cells and normal cells (PBMC) significantly,minimal toxicity,do not decrease the cellular viability of treated cancer cells and normal cells (PBMC) significantly,minimal toxicity,do not decrease the cellular viability of treated cancer cells and normal cells (PBMC) significantly,induced terminal cellular differentiation,induced terminal cellular differentiation,–
"O=C1CCCO1 [GBL, Gamma butyrolactone]",do not decrease the cellular viability of treated cancer cells and normal cells (PBMC) significantly,minimal toxicity,do not decrease the cellular viability of treated cancer cells and normal cells (PBMC) significantly,minimal toxicity,do not decrease the cellular viability of treated cancer cells and normal cells (PBMC) significantly,induced terminal cellular differentiation,induced terminal cellular differentiation,"apoptosis (early and late) and necrosis (HL60 cells [6]; 300 μM of GBL, 48 hours (FIG. 11)): minimal to no apoptosis (early and late) and necrosis; apoptosis (early and late) and necrosis (KG1a cells [7]; KG1a cells, 300 μM of GBL, 48 hours (FIG. 11)): minimal to no apoptosis (early and late) and necrosis"
CCCCCC(=O)CC(=O)N[C@H]1CCOC1=O [HSL-C8],do not decrease the cellular viability of treated cancer cells and normal cells (PBMC) significantly,–,do not decrease the cellular viability of treated cancer cells and normal cells (PBMC) significantly,–,do not decrease the cellular viability of treated cancer cells and normal cells (PBMC) significantly,induced terminal cellular differentiation,induced terminal cellular differentiation,"concentrations that cause minimal to no apoptosis (HL60 cells [6]; human): ≤ 100 µM; concentrations that cause minimal to no apoptosis (KG1a cells [7]; human): ≤ 100 µM; change of cell morphology (HL60 cells [8]; 50 μM and 100 μM of HSL-C8, 48 and 72 hours (FIG. 7A)): neutrophil and macrophage-like cells, with lobulated nuclei and expanded cytoplasm; change of cell morphology (KG1a cells [9]; 100 μM and 200 μM of HSL-C8, 48 and 72 hours (FIG. 7B)): neutrophil and macrophage-like cells, with lobulated nuclei and expanded cytoplasm"
CCCCCCCCCC(=O)CC(=O)N[C@H]1CCOC1=O [HSL-C12],do not decrease the cellular viability of treated cancer cells and normal cells (PBMC) significantly,–,do not decrease the cellular viability of treated cancer cells and normal cells (PBMC) significantly,–,do not decrease the cellular viability of treated cancer cells and normal cells (PBMC) significantly,induced terminal cellular differentiation,induced terminal cellular differentiation,"apoptosis (early and late) and necrosis (HL60 cells [6]; 50 and 100 μM of HSL-C12, 24 hours (FIG. 4A)): minimal to no apoptosis (early and late) and necrosis; apoptosis (early and late) and necrosis (HL60 cells [6]; 50 and 100 μM of HSL-C12, 48 hours (FIG. 4B)): minimal to no apoptosis (early and late) and necrosis; apoptosis (early and late) and necrosis (KG1a cells [7]; KG1a cells, 100 μM of HSL-C12, 24 hours (FIG. 4C)): minimal to no apoptosis (early and late) and necrosis; apoptosis (early and late) and necrosis (KG1a cells [7]; KG1a cells, 100 μM of HSL-C12, 48 hours (FIG. 4D)): minimal to no apoptosis (early and late) and necrosis; apoptosis and necrosis (KG1a cells [7]; KG1a cells, 150 μM of HSL-C12, 24 hours (FIG. 4C)): minimal apoptosis and necrosis; apoptosis (early and late) and necrosis (KG1a cells [7]; KG1a cells, 150 μM of HSL-C12, 48 hours (FIG. 4D)): moderate apoptosis (early and late) and necrosis; change of cell morphology (HL60 cells [8]; 100 μM and 150 μM of HSL-C12, 24 and 48 hours (FIG. 8A)): neutrophil and macrophage-like cells, with lobulated nuclei and expanded cytoplasm; change of cell morphology (KG1a cells [9]; 100 μM and 150 μM of HSL-C12, 24 and 48 hours (FIG. 8B)): neutrophil and macrophage-like cells, with lobulated nuclei and expanded cytoplasm"
